# Experimental data taken from patent publication US20230051589A1, “COMPOUNDS AND COMPOSITIONS FOR TREATING CONDITIONS ASSOCIATED WITH NLRP ACTIVITY” (Novartis AG, priority 2018, published 2023).
# Like-named read-outs stand apart in the source and are kept apart here.
# System: IL-1β production in PMA-differentiated THP-1 cells
# Assay: IL-1β production in PMA-differentiated THP-1 cells stimulated with gramicidin (hTHP-1 assay, 2% fetal bovine serum; Procedures 1-3)
# Format: cell-based, human
# Method in brief: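 PMA-primed THP-1 cells (20 ng/ml PMA, 16-18 h) in RPMI with 2% FBS were pre-incubated with compounds for 1 h, from 100 μM downward in 3-fold steps (0.37% DMSO final), then stimulated with 5 μM gramicidin for 2 h. IL-1β in the supernatant was quantified by HTRF.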
# [1] = Homo sapiens, THP-1, Table B3, hTHP-1 assay containing 2% fetal bovine serum, gramicidin stimulation, IL-1β readout, read-out: hTHP-1 IC50
# [2] = Homo sapiens, THP-1, hTHP-1 assay containing 2% fetal bovine serum, Table B2, class symbols, read-out: IC50
# [3] = hTHP-1 assay containing 2% fetal bovine serum, Table B2, class symbols, read-out: IC50
# [4] = Table B3, hTHP-1 assay containing 2% fetal bovine serum, gramicidin stimulation, IL-1β readout, read-out: hTHP-1 IC50
IC50 [2] [nM],IC50 [3] [nM],Compound,other results
,,"NS(=O)(=NC(=O)Nc1c2c(cc3c1CCC3)CCC2)c1cnc(C(O)(COCCOCc2ccccc2)COCCOCc2ccccc2)s1 (stereo not shown) [Example 780, N′-((1,2,3,5,6,7-hexahydro-s-indacen-4-yl)carbamoyl)-2-(7-hydroxy-1,13-diphenyl-2,5,9,12-tetraoxatridecan-7-yl)thiazole-5-sulfonimidamide]",IC50 [1]: 1000 to 5000 nM
1000 to 5000,,CC(C)(O)c1nc(CO)c(S(N)(=O)=NC(=O)Nc2c3c(cc4c2C(=O)CC4)CCC3)s1 (stereo not shown) [Compound 914],
5000 to 30000,,"CN(Cc1cccc(S(N)(=O)=NC(=O)Nc2c3c(cc4c2CCC4)CCC3)c1)CC1CC1 (stereo not shown) [Example 507, 3-(((Cyclopropylmethyl) (methyl)amino)methyl)-N′-((1,2,3,5,6,7-hexahydro-s-indacen-4-yl)carbamoyl)benzenesulfonimidamide]",
200 to 1000,,CC(NC1CCC1)c1ccc(S(N)(=O)=NC(=O)Nc2c3c(cc4c2CC4)CCC3)c(F)c1 (stereo not shown) [Compound 892],
,5000 to 30000,"CC(O)(CO)c1ncc(S(N)(=O)=NC(=O)Nc2c3c(c(C#N)c4c2CCC4)CCC3)s1 (mixture of isomers) [Example 635, (R,S) and (S,S)-N′-((8-cyano-1,2,3,5,6,7-hexahydro-indacen-4-yl)carbamoyl)-2-(1,2-dihydroxypropan-2-yl)thiazole-5-sulfonimidamide (mixture of two isomers)]",
,,"NS(=O)(=NC(=O)Nc1c2c(cc3c1CCC3)CCC2)c1ccc([C@H]2CCCN2)s1 (single isomer, unassigned) [Example 824, (S) or (R) -N′-((1,2,3,5,6,7-hexahydro-s-indacen-4-yl)carbamoyl)-5-((R)-pyrrolidin-2-yl)thiophene-2-sulfommidamide]",IC50 [4]: 5000 to 30000 nM
,,"CN(C)C(c1ccc(S(N)(=O)=NC(=O)Nc2c3c(cc4c2CCC4)CCC3)cc1)C(F)(F)F (single isomer, unassigned) [Example 665, (S,S) or (R,S)-4-(1-(dimethylamino)-2,2,2-trifluoroethyl)-N′-((1,2,3,5,6,7-hexahydro-s-indacen-4-yl)carbamoyl) benzenesulfonimidamide]","IC50 (hTHP-1 assay containing 2% fetal bovine serum, Table B2, given as bound, read-out: IC50): > 30000 nM"
,200 to 1000,"CNC(C)(C)c1ccc(S(N)(=O)=NC(=O)Nc2c3c(cc4c2CCC4)CCC3)c(F)c1 (single isomer, unassigned) [Example 593, (R) or (S)-2-fluoro-N′-((1,2,3,5,6,7-hexahydro-s-indacen-4-yl)carbamoyl)-4-(2-(methylamino)propan-2-yl) benzenesulfonimidamide]",
,,"C[C@](O)(COCCOCc1ccccc1)c1ccc([S@@](N)(=O)=NC(=O)Nc2c3c(cc4c2CCC4)CCC3)s1 (racemic) [Example 746, (S)-5-((S)-1-(2-(benzyloxy)ethoxy)-2-hydroxypropan-2-yl)-N′-((1,2,3,5,6,7-hexahydro-s-indacen-4-yl)carbamoyl)thiophene-2-sulfonimidamide]",IC50 [1]: 200 to 1000 nM
,8 to 40,"CC(C)(O)c1cc(F)c(S(N)(=O)=NC(=O)Nc2c3c(cc4c2CC4)CCC3)s1 (single isomer, unassigned) [Example 432]",
,1000 to 5000,"CNCc1csc(S(N)(=O)=NC(=O)Nc2c3c(cc4c2CCC4)CCC3)c1 (single isomer, unassigned) [Example 692, (S) or (R)-N′-((1,2,3,5,6,7-hexahydro-s-indacen-4-yl)carbamoyl)-4-((methylamino)methyl)thiophene-2-sulfonimidamide]",
,,"CN1CCc2sc(S(N)(=O)=NC(=O)Nc3c4c(cc5c3CC5)CCC4)c(F)c2C1 (single isomer, unassigned) [Example 835, (R) or (S)-3-fluoro-5-methyl-N′-((2,4,5,6-tetrahydro-1H-cyclobuta[f]inden-3-yl)carbamoyl)-4,5,6,7-tetrahydrothieno[3,2-c]pyridine-2-sulfonimidamide]",IC50 [4]: 40 to 200 nM
1000 to 5000,,"CN(C)C(CF)c1ccc(S(N)(=O)=NC(=O)Nc2c3c(cc4c2CCC4)CCC3)cc1 (stereo not shown) [Example 480, 4-(1-(Dimethylamino)-2-fluoroethyl)-N′-((1,2,3,5,6,7-hexahydro-s-indacen-4-yl)carbamoyl)benzenesulfonimidamide]",
